Assay results published in PubChem BioAssay (NCI).
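Cultured in 96-well plates, cells were exposed to test compound for 48 hours across five concentrations. Abbreviation: GI50, concentration required for 50% inhibition of growth. At the TGI there is no net growth.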

How the values were obtained:
Test in all cases: growth of human tumour cells (NCI), 48 h
[1] = tested on: SN12C renal
[2] = tested on: NCI-H23 lung
[3] = tested on: CCRF-CEM leukemia
[4] = tested on: A549 NSCLC
[5] = tested on: OVCAR-3 ovarian
[6] = tested on: SR leukemia
[7] = tested on: MCF7 breast
[8] = tested on: SF-268 CNS
[9] = tested on: 786-0 renal
[10] = tested on: SK-OV-3 ovarian
[11] = tested on: LOX IMVI melanoma
[12] = tested on: HL-60(TB) leukemia
[13] = tested on: EKVX NSCLC
[14] = tested on: SF-539 CNS
[15] = tested on: HT29 colon
[16] = tested on: UACC-62 melanoma
[17] = tested on: TK-10 renal
[18] = tested on: CAKI-1 renal
[19] = tested on: A498 renal
[20] = tested on: SW-620 colon
[21] = tested on: HOP-92 NSCLC
[22] = tested on: T-47D breast
[23] = tested on: NCI/ADR-RES ovarian
[24] = tested on: COLO 205 colon
[25] = tested on: SK-MEL-2 melanoma
[26] = tested on: SNB-19 CNS
[27] = tested on: M14 melanoma
[28] = tested on: SF-295 CNS
[29] = tested on: UO-31 renal
[30] = tested on: NCI-H226 lung
[31] = tested on: HCT-116 colon
[32] = tested on: ACHN renal
[33] = tested on: OVCAR-5 ovarian
[34] = tested on: MDA-MB-435
[35] = tested on: OVCAR-8 ovarian
[36] = tested on: MOLT-4 leukemia
[37] = tested on: MALME-3M melanoma
[38] = tested on: HCT-15 colon
[39] = tested on: HOP-62 NSCLC
[40] = tested on: HS 578T breast
[41] = tested on: NCI-H522 lung
[42] = tested on: BT-549 breast
[43] = tested on: K-562 leukemia
[44] = tested on: UACC-257 melanoma
[45] = tested on: KM12 colon
[46] = tested on: MDA-MB-468 breast
[47] = tested on: MDA-MB-231 breast
[48] = tested on: U251 CNS
[49] = tested on: DU-145 prostate
[50] = tested on: OVCAR-4 ovarian
[51] = tested on: SK-MEL-5 melanoma
[52] = tested on: IGROV1 ovarian
[53] = tested on: HCC-2998 colon
[54] = tested on: SK-MEL-28 melanoma
[55] = tested on: RXF 393 renal
[56] = tested on: PC-3 prostate
[57] = tested on: SNB-75 CNS

## CN1CCN(Cc2ccc(C(=O)Nc3cccc(Nc4ccc5c(O)cccc5n4)c3)cc2C(F)(F)F)CC1
[1]
  GI50: 2.34 µM
  TGI: 6.03 µM
[2]
  GI50: 2.26 µM
  TGI: 4.79 µM
[3]
  GI50: 2.91 µM
  TGI: > 100 µM
[4]
  GI50: 4.5 µM
  TGI: 20 µM
[5]
  GI50: 3.1 µM
  TGI: 8 µM
[6]
  GI50: 4.39 µM
  TGI: > 100 µM
[7]
  GI50: 1.74 µM
  TGI: 3.41 µM
[8]
  GI50: 3.81 µM
  TGI: 19 µM
[9]
  GI50: 2.11 µM
  TGI: 4.28 µM
[10]
  GI50: 14.4 µM
  TGI: 29.2 µM
[11]
  GI50: 1.65 µM
  TGI: 3.01 µM
[12]
  GI50: 2.47 µM
  TGI: 5.67 µM
[13]
  GI50: 3.75 µM
  TGI: 14.1 µM
[14]
  GI50: 1.67 µM
  TGI: 3.08 µM
[15]
  GI50: 2.06 µM
  TGI: 4.41 µM
[16]
  GI50: 1.73 µM
  TGI: 3.49 µM
[17]
  GI50: 3.36 µM
  TGI: 13.1 µM
[18]
  GI50: 2.13 µM
  TGI: 5.17 µM
[19]
  GI50: 17.5 µM
  TGI: 33.3 µM
[20]
  GI50: 2.24 µM
  TGI: 4.18 µM
[21]
  GI50: 1.32 µM
  TGI: 5.8 µM
[22]
  GI50: 10.7 µM
  TGI: 26.4 µM
[23]
  GI50: 3.45 µM
  TGI: 12 µM
[24]
  GI50: 1.99 µM
  TGI: 3.94 µM
[25]
  GI50: 1.92 µM
  TGI: 3.68 µM
[26]
  GI50: 2.39 µM
  TGI: 5.15 µM
[27]
  GI50: 2.21 µM
  TGI: 5.67 µM
[28]
  GI50: 1.65 µM
  TGI: 3.16 µM
[29]
  GI50: 1.99 µM
  TGI: 4.29 µM
[30]
  GI50: 19.2 µM
  TGI: 41.7 µM
[31]
  GI50: 2.7 µM
  TGI: > 100 µM
[32]
  GI50: 2.07 µM
  TGI: 4.92 µM
[33]
  GI50: 3.24 µM
  TGI: 14.4 µM
[34]
  GI50: 1.78 µM
  TGI: 3.78 µM
[35]
  GI50: 3.56 µM
  TGI: 14 µM
[36]
  GI50: 1.86 µM
  TGI: 5.29 µM
[37]
  GI50: 1.67 µM
  TGI: 3.12 µM
[38]
  GI50: 1.82 µM
  TGI: 3.54 µM
[39]
  GI50: 3 µM
  TGI: 8.85 µM
[40]
  GI50: 2.96 µM
  TGI: 21.8 µM
[41]
  GI50: 1.93 µM
  TGI: 3.97 µM
[42]
  GI50: 15.6 µM
  TGI: 30.2 µM
[43]
  GI50: 2.42 µM
  TGI: 24.5 µM
[44]
  GI50: 1.92 µM
  TGI: 3.86 µM
[45]
  GI50: 2.3 µM
  TGI: 5.23 µM
[46]
  GI50: 1.62 µM
  TGI: 3.16 µM
[47]
  GI50: 1.62 µM
  TGI: 3.75 µM
[48]
  GI50: 2.38 µM
  TGI: 5.2 µM
[49]
  GI50: 4.68 µM
  TGI: 17.7 µM
[50]
  GI50: 7.39 µM
  TGI: 21 µM
[51]
  GI50: 1.68 µM
  TGI: 3.07 µM
[52]
  GI50: 4.7 µM
  TGI: 17 µM
[53]
  GI50: 1.89 µM
  TGI: 3.36 µM
[54]
  GI50: 1.77 µM
  TGI: 3.21 µM
[55]
  GI50: 1.66 µM
  TGI: 3.58 µM
[56]
  GI50: 2.53 µM
  TGI: 14.6 µM
[57]
  GI50: 1.85 µM
  TGI: 13.7 µM
